Results reported in US20230381121A1, “N-PALMITOYLETHANOLAMIDE AND MELATONIN FOR USE IN THE TREATMENT OF AUTISM SPECTRUM DISORDER AND OTHER NEUROBEHAVIORAL DISORDERS SIMILARLY ACCOMPANIED BY RESTLESSNESS, IRRITABILITY, SLEEP DISORDERS, AND POTENTIALLY STEREOTYPIES” (priority 2022, published 2023).
“Also recorded” adds a separate entry of the source.

Experiments:
[1] = tested on: mice in which an autistic phenotype was induced by valproic acid (VPA); assay: Thermal Nociception test (hot plate) in VPA mice; type: in vivo, C57/BL6 mice; details: melatonin at 1 mg/kg per os daily for 14 days, the worsening is significant, FIG. 6
Protocol: (§1) To evaluate the synergy of a combination PEA-um and melatonin, experimental tests were carried out by oral administration (gastric tube) of a mixture of um-PEA and melatonin (approximately 10:1 ratio) at a dose of 10 mg/kg for two weeks in mice in which an autistic phenotype was induced by a single injection of valproic acid in the form of sodium valproate (VPA).
(§2) Healthy male C57/BL6 mice fed ad libitum and housed in cages with controlled sleep/wake cycles were used in the first experimentation. […]
(§3) The animals underwent the following behavioral tests: • The social interaction test, also known as a 3-chamber social test (FIGS. 2A, 2B and FIGS. 15A, 15B) to evaluate i) the interaction time of the animals with an unknown mouse and ii) the sociability index (ratio between the time spent by the mouse exploring the area without and with the new companion). […] In this phase of the test, parameters such as the time spent by the animal exploring i) the chambers and ii) the unfamiliar mouse were detected. • The Novel Object Recognition Test or NOR test (FIGS. 3A, 3B) to examine cognition and recognition memory by calculating the time spent by the animal exploring new objects with respect to familiar ones. […]

[2] = tested on: mice in which an autistic phenotype was induced by valproic acid (VPA); assay: VPA injection model of autism: overall activity in the study; type: in vivo, C57/BL6 mice
Protocol: as §1, §2, §3

BTBR T+tf/J (BTBR) mice [3] = assay: Social interaction test and 3-chamber social interaction test in BTBR mice; type: in vivo; details: melatonin 0.1 mg/kg orally for 10 days
Protocol: (§4) Furthermore, experimental tests were carried out to determine the synergy of the PEA-Melatonin-DHA combination administered orally to genetically modified BTBR T+tf/J (BTBR) mice, an animal model of neurobehavioral disorders of the ASD type.
(§5) To determine the synergy of a PEA-um, melatonin and DHA combination, a second experimentation was performed, using a different animal model useful for the study of neurobehavioral disorders, and more precisely BTBR mice. […]
(§6) The animals underwent the following behavioral tests: • The social interaction test, also known as a 3-chamber social test (FIGS. 2A, 2B and FIGS. 15A, 15B) to evaluate i) the interaction time of the animals with an unknown mouse and ii) the sociability index (ratio between the time spent by the mouse exploring the area without and with the new companion). […] In this phase of the test, parameters such as the time spent by the animal exploring i) the chambers and ii) the unfamiliar mouse were detected. • The Novel Object Recognition Test or NOR test (FIGS. 3A, 3B) to examine cognition and recognition memory by calculating the time spent by the animal exploring new objects with respect to familiar ones. […] The exploration time was counted from the moment the mice directly looked at and smelled the object at a distance of less than 2 cm. […]

BTBR T+tf/J (BTBR) mice [4] = assay: Marble Burying test in BTBR mice; type: in vivo; details: melatonin 0.1 mg/kg orally for 10 days, FIG. 15C
Protocol: as §4, §5, §6

BTBR T+tf/J (BTBR) mice [5] = assay: Self Grooming test in BTBR mice; type: in vivo; details: melatonin 0.1 mg/kg orally for 10 days, FIG. 15D
Protocol: as §4, §5, §6

[6] = tested on: mice with a simil-autistic phenotype; details: cited from earlier work
autistic children = details: um-PEA 600 mg/day, 3-month treatment; cited from earlier work

SMILES | VPA-induced pain insensitivity (hot plate) [1] | activity in the assessments of the VPA study (social interaction, sociability index, NOR, stereotypies, EPM) ([2]; melatonin at 1 mg/kg per os daily for 14 days, 1 mg/kg) | activity in the present study (VPA model) ([2]; melatonin at a dose of 10 mg/kg per os daily for 14 days) | social interaction behavioral test (BTBR T+tf/J (BTBR) mice [3]; FIG. 15A) | 3-chamber social interaction test: side of the area where time is spent (BTBR T+tf/J (BTBR) mice [3]; FIG. 15B) | stereotyped repetitive behaviors (Marble Burying) (BTBR T+tf/J (BTBR) mice [4]) | stereotyped repetitive behaviors (Self Grooming) (BTBR T+tf/J (BTBR) mice [5]) | altered behavioral status [6] | expression of the pro-inflammatory hippocampal and serum cytokines IL-6, IL-1β and TNF-α [6] | adverse effects (autistic children) | aggressiveness, cognitive and behavioral skills, and communication (autistic children)
COc1ccc2[nH]cc(CCNC(C)=O)c2c1 [melatonin, N-acetyl-5-methoxy tryptamine] | worsened | inactive; also recorded: never shown to be active | active | no improvement | continuing to spend their time in the empty side | no improvement | no improvement |  |  |  | 
CCCCCCCCCCCCCCCC(=O)NCCO [um-PEA, Ultra-micronized palmitoylethanolamide] |  |  |  |  |  |  |  | modulating | reducing | without adverse effects | improves
